Data taken from article PMC7419507, “In vitro Cas9-assisted editing of modular polyketide synthase genes to produce desired natural product derivatives” (Nature Communications, 2020).
“And” between values parts separate entries of the source, which are not always exact repeats. Identical values can stand only once.

Key:
Format in all cases: cell-based
FKBP12 and mTOR = biological target: T1, FKBP12 and mTOR (Homo sapiens, UniProt P42345+P62942); assay: Fluoppi analysis: induction of FKBP12-mTOR complex formation in transfected HeLa cells; conditions: raw data, one replicate per line
T1 construct: host or cells: HeLa cells
Procedure: Fluoppi harbours a tetrameric fluorescent protein hAG tag and an oligomeric assembly helper Ash tag to create detectable fluorescent foci in cells when there are interactions between two proteins fused to each tag[32].
HeLa cells were maintained in DMEM (Fujifilm Wako, Osaka, Japan) supplemented with 10% FBS (Thermo Fisher Scientific, MA, USA) and 1% of Penicillin-Streptomycin (Thermo Fisher Scientific) in a humidified incubator with 5% CO2 at 37 °C. Harvested cells were plated at 1 × 10^6 cells/well in 6-well plate and incubated for 6 h. Then each 1.25 µg of phAG-mTOR and pAsh-FKBP12 (Medical and Biological Laboratories Co., Ltd., Aichi, Japan) was co-transfected with Lipofectamine 2000 reagent (Thermo Fisher Scientific) overnight. Next day, transfected cells were harvested and seeded in 384-well optical-bottom microplate (PerkinElmer, MA, USA) at a density of 3000 cells/well. After the 24 h incubation at 37 °C, cells were treated with different concentrations of compounds for 1 h. Cells were then fixed with 4% paraformaldehyde and stained with 1 µg/ml of Hoechst33342 (Thermo Fisher Scientific). Cell images of 9 visual fields/well were acquired with ×20 objective lens in Opera Phenix High-Content Screening System (PerkinElmer) and analysed by Harmony4.9 software (PerkinElmer). Because protein-protein interactions are quantified by measuring the aggregation of fluorescent elements in foci, fluorescent intensity in foci was normalised by total fluorescent intensity in each cell. EC50 values were calculated using TIBCO Spotfire 10.3 software (PerkinElmer).

T lymphoma Jurkat cells = assay: Cytotoxicity assay (CellTiter-Glo, 72 h), Jurkat; conditions: raw data (replicates)
Procedure: (§1) Jurkat cells were cultured in RPMI1640 medium supplemented with 10% foetal bovine serum, penicillin (50 U/ml), streptomycin (50 μg/ml), and Glutamax. SKOV-3 cells were cultured in DMEM medium supplemented with 10% fetal bovine serum, penicillin (50 U/ml), and streptomycin (50 μg/ml). MESO-1 cells were cultured in RPMI1640 medium supplemented with 10% fetal bovine serum, penicillin (50 U/ml), and streptomycin (50 μg/ml). All cell lines were seeded in a 384-well plate at a density of 1000 cells/well in 20 μl of media and incubated at 37 °C in a humidified incubator with 5% CO2. After 4 h, 2-fold dilution samples resolved in DMSO were added to the cell culture at the concentration of 0.5% (0.1 μl) and incubated for 72 h. Cell viabilities were measured using a CellTiter-Glo luminescent cell viability assay and EnVision multilabel plate reader.

[1] = Cytotoxicity assay (CellTiter-Glo, 72 h), Jurkat; conditions: human, Jurkat cells (T lymphoma)
Procedure: as §1

T1 sequence (P42345 2025-2114 limits assumed): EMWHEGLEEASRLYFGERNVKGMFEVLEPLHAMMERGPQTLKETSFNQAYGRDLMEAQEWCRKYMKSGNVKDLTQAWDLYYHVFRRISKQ
T1 sequence (P62942 whole entry): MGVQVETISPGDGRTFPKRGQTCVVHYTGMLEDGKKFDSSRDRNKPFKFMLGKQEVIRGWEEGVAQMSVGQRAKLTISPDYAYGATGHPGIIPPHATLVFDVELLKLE

In the case of `CO[C@H]1C[C@@H]2CC[C@@H](C)[C@@](O)(O2)C(=O)C(=O)N2CCCC[C@H]2C(=O)O[C@H]([C@H](C)C[C@@H]2CC[C@@H](O)[C@H](OC)C2)CC(=O)[C@H](C)/C=C(\C)[C@@H](O)[C@@H](OC)C(=O)[C@H](C)C[C@H](C)/C=C/C=C/C=C/1C` [Compound 1, rapamycin, reference compound], the Foci intensity (FKBP12 and mTOR; conc 9.53674e-5 uM) is reported as 0.01161 and 0.0103 and 0.03088, the Foci intensity (FKBP12 and mTOR; conc 0.000190735 uM) is reported as 0.00895 and 0.02271 and 0.02107 and the Foci intensity (FKBP12 and mTOR; conc 0.00038147 uM) is reported as 0.01544 and 0.008548 and 0.02969. The Foci intensity (FKBP12 and mTOR; conc 0.000762939 uM) was 0.009653 and 0.01526 and 0.05621, the Foci intensity (FKBP12 and mTOR; conc 0.00152588 uM) was 0.01804 and 0.005306 and 0.005698 and the Foci intensity (FKBP12 and mTOR; conc 0.00305176 uM) was 0.0369 and 0.03402 and 0.3176. For the same compound, the Foci intensity (FKBP12 and mTOR; conc 0.00610352 uM) was 0.06499 and 0.06076 and 0.02459, the Foci intensity (FKBP12 and mTOR; conc 0.012207 uM) was 0.2364 and 0.2753 and 0.5339 and the Foci intensity (FKBP12 and mTOR; conc 0.0244141 uM) was 0.345 and 0.3003 and 0.3827. For the same compound, the Foci intensity (FKBP12 and mTOR; conc 0.0488281 uM) was 0.3632 and 0.2888 and 0.4741, the Foci intensity (FKBP12 and mTOR; conc 0.0976562 uM) was 0.3612 and 0.3367 and 0.3536 and the Foci intensity (FKBP12 and mTOR; conc 0.195312 uM) was 0.3566 and 0.4014 and 0.5261. The Foci intensity (FKBP12 and mTOR; conc 0.390625 uM) was 0.3241 and 0.3575 and 0.3236, the Foci intensity (FKBP12 and mTOR; conc 0.78125 uM) was 0.4221 and 0.4622 and 0.4598 and the Foci intensity (FKBP12 and mTOR; conc 1.5625 uM) was 0.3074 and 0.3503 and 0.4064. The Foci intensity (FKBP12 and mTOR; conc 3.125 uM) was 0.4223 and 0.3831 and 0.4233, the Foci intensity (FKBP12 and mTOR; conc 6.25 uM) was 0.3328 and 0.3828 and 0.4116 and the Foci intensity (FKBP12 and mTOR; conc 12.5 uM) was 0.2834 and 0.3194 and 0.3771. The Foci intensity (FKBP12 and mTOR; conc 25 uM) was 0.3113 and 0.345 and 0.3681, the Foci intensity (FKBP12 and mTOR; conc 50 uM) was 0.2989 and 0.4553 and 0.5427 and the “Jurkat viability (%)” value (T lymphoma Jurkat cells; conc 9.53674e-5 uM) was 52.8% and 57.4%. For the same compound, the “Jurkat viability (%)” value (T lymphoma Jurkat cells; conc 0.000190735 uM) was 35.2% and 40.4%, the “Jurkat viability (%)” value (T lymphoma Jurkat cells; conc 0.00038147 uM) was 39.9% and 44.6% and the “Jurkat viability (%)” value (T lymphoma Jurkat cells; conc 0.000762939 uM) was 31.7%. The “Jurkat viability (%)” value (T lymphoma Jurkat cells; conc 0.00152588 uM) was 102.7% and 105.0%, the “Jurkat viability (%)” value (T lymphoma Jurkat cells; conc 0.00305176 uM) was 37.4% and the “Jurkat viability (%)” value (T lymphoma Jurkat cells; conc 0.00610352 uM) was 31.8% and 34.7%. For the same compound, the “Jurkat viability (%)” value (T lymphoma Jurkat cells; conc 0.012207 uM) was 28.7% and 28.4%, the “Jurkat viability (%)” value (T lymphoma Jurkat cells; conc 0.0244141 uM) was 27.2% and 27.1% and the “Jurkat viability (%)” value (T lymphoma Jurkat cells; conc 0.0488281 uM) was 23.4%. For the same compound, the “Jurkat viability (%)” value (T lymphoma Jurkat cells; conc 0.0976562 uM) was 26.6% and 24.6%, the “Jurkat viability (%)” value (T lymphoma Jurkat cells; conc 0.195312 uM) was 24.1% and 25.5% and the “Jurkat viability (%)” value (T lymphoma Jurkat cells; conc 0.390625 uM) was 24.1% and 24.6%. The “Jurkat viability (%)” value (T lymphoma Jurkat cells; conc 0.78125 uM) was 24.2%, the “Jurkat viability (%)” value (T lymphoma Jurkat cells; conc 1.5625 uM) was 22.7% and 24.6% and the “Jurkat viability (%)” value (T lymphoma Jurkat cells; conc 3.125 uM) was 21.8% and 23.2%. For the same compound, the “Jurkat viability (%)” value (T lymphoma Jurkat cells; conc 6.25 uM) was 22.0% and 21.9%, the “Jurkat viability (%)” value (T lymphoma Jurkat cells; conc 12.5 uM) was 19.2% and the “Jurkat viability (%)” value (T lymphoma Jurkat cells; conc 25 uM) was 6.4% and 6.3%. For the same compound, the “Jurkat viability (%)” value (T lymphoma Jurkat cells; conc 50 uM) was 0.5% and 0.178% and 0.2%, the viability at 72 h ([1]; 72 h, read-out: Plateau level of cell viability in the dose-response curve) was ~25% and the viability at 72 h, 9.53674e-05 uM ([1]; conc 9.53674e-5 uM, raw data (replicates)) was 51.5%. The viability at 72 h, 0.000190735 uM ([1]; conc 0.000190735 uM, raw data (replicates)) was 40.1%, the viability at 72 h, 0.00038147 uM ([1]; conc 0.00038147 uM, raw data (replicates)) was 41% and the viability at 72 h, 0.000762939 uM ([1]; conc 0.000762939 uM, raw data (replicates)) was 32.5%. For the same compound, the viability at 72 h, 0.00152588 uM ([1]; conc 0.00152588 uM, raw data (replicates)) was 100%, the viability at 72 h, 0.00305176 uM ([1]; conc 0.00305176 uM, raw data (replicates)) was 41.9% and the viability at 72 h, 0.00610352 uM ([1]; conc 0.00610352 uM, raw data (replicates)) was 30.7%. For the same compound, the viability at 72 h, 0.012207 uM ([1]; conc 0.012207 uM, raw data (replicates)) was 28.3% and the viability at 72 h, 0.0244141 uM ([1]; conc 0.0244141 uM, raw data (replicates)) was 25.3%.
